Test results from patent publication US9393186B2, “Synthetic peptides useful in the treatment of the skin and use thereof in cosmetic or dermopharmaceutical compositions” (Lipotec, S.A., priority 2006, dated 2016).
Square brackets hold non-standard residues; d marks the D form. Ends that are not written are not given here. Cit = NC(=O)NCCC[C@H](N)C(=O)O; Orn = NCCC[C@H](N)C(=O)O; Nva = CCC[C@H](N)C(=O)O

Tests used:
[1] = tested on: EFT-200 three-dimensional human skin model; test: Collagen fibril diameter in EFT-200 three-dimensional human skin model (transmission electron microscopy); type: cell-based; details: for average of the diameters of the collagen fibrils observed: peptide 0.1 mg/mL in culture medium, changed daily for 14 days, untreated tissue 6.825 nm; for reduction of the diameter of the collagen fibers: peptide 0.1 mg/mL, 14 days, versus untreated tissue
Experimental: Starting from an EFT-200 three-dimensional human skin model (MatTek Corporation), the tissues were treated with H-Lys-Asp-Ile-Cit-NH2 and with H-Lys-Asp-Val-Cit-NH2 at a concentration of 0.1 mg/mL in culture medium. The latter was changed daily for 14 days, adding peptide at the same concentration in each change. On day 14, the tissues were fixed with a solution of 2% paraformaldehyde and 2.5% glutaraldehyde in 0.1M phosphate buffer, pH 7.4, for at least 2 hours at 4° C. The post-fixing was then carried out with 1% osmium tetroxide containing 0.8% potassium ferricyanide for 1 hour at 4° C. The tissues were then dehydrated in alcohols and were slowly included in epoxy resin (Spurr). The samples were cut and oriented correctly in the block, allowing them to polymerize for 48 hours at 60° C.

fibrillogenesis = test: Regulation of fibrillogenesis by synthetic peptides; details: peptides complying with the [+,-,0,+] charge pattern; no method given

Substance	average of the diameters of the collagen fibrils observed [1]	reduction of the diameter of the collagen fibers [1]	effect on fibrillogenesis (fibrillogenesis)
H-KDV[Cit]-NH2	5.774 nm	15.5%	
His-Asp-Ile-His (HDIH; printed: His-Asp-Ile-His) [comparison peptide complying with the [+,-,0,+] charge pattern]			no effect on fibrillogenesis
H-KDI[Cit]-NH2	5.791 nm	15.1%	
His-Asp-Ala-Arg (HDAR; printed: His-Asp-Ala-Arg) [comparison peptide complying with the [+,-,0,+] charge pattern]			no effect on fibrillogenesis
RELH			capable of regulating fibrillogenesis
[Orn]D[Nva]H			no effect on fibrillogenesis
